Measured values reported in article PMC3108859 (Toxicology and applied pharmacology, 2009).
“Also recorded” adds a separate entry of the source.

Assays:
[1] = tested on: rat hepatocyte-Kupffer cell co-culture; settings: ref Tukov et al., 2006; cited from earlier work
[2] = tested on: primary human hepatocytes; assay: Quantitative sub-lethal hepatotoxicity imaging assays; format: cell-based; settings: absence of cytokines, 24 or 48 hours
[3] = tested on: primary human hepatocytes; format: cell-based; settings: no cytokines, 24 hr, doses less than each drug's own 100*Cmax
[4] = tested on: primary human hepatocytes; format: cell-based; settings: 24 hours post-treatment

| SMILES | drug-induced sub-lethal hepatocyte injuries (lipid content, ROS, MtMP, GSH depletion) [2] | cytokine synergy effects by factorial analysis of caspase 3/7 activity [4] | further results |
| --- | --- | --- | --- |
| CN(C)CCCN1c2ccccc2Sc2ccc(Cl)cc21 [chlorpromazine] |  |  | synergistic induction of hepatocellular death following LPS treatment [1]: synergistic induction of hepatocellular death following LPS treatment |
| CC[C@H]1OC(=O)[C@H](C)[C@@H](O[C@H]2C[C@@](C)(OC)[C@@H](O)[C@H](C)O2)[C@H](C)[C@@H](O[C@@H]2O[C@H](C)C[C@H](N(C)C)[C@H]2O)[C@](C)(OC)C[C@@H](C)C(=O)[C@H](C)[C@@H](O)[C@]1(C)O [clarithromycin] | numerous sub-lethal hepatotoxicities |  |  |
| CCc1nn(CCCN2CCN(c3cccc(Cl)c3)CC2)c(=O)n1CCOc1ccccc1 [nefazodone] | numerous sub-lethal hepatotoxicities |  |  |
| C=C[C@H]1C[N@@]2CC[C@H]1C[C@H]2[C@H](O)c1ccnc2ccc(OC)cc12 [quinine] |  |  | drug-only hepatotoxicity (greater than two-fold increase in LDH release) [3]: induced significant drug-only hepatotoxicity |
| CC[C@H]1OC(=O)[C@H](C)C(=O)[C@H](C)[C@@H](O[C@@H]2O[C@H](C)C[C@H](N(C)C)[C@H]2O)[C@](C)(OC)C[C@@H](C)C(=O)[C@H](C)[C@H]2N(CCCCn3cnc(-c4cccnc4)c3)C(=O)O[C@]12C [telithromycin] | only sub-lethal injury induced by both telithromycin and trovafloxacin that was statistically significant was MtMP depletion; also recorded: induced only one type of sub-lethal injury, mitochondrial membrane potential depletion | evident, in decreasing magnitude, for LPS and IL-1α but not other treatment variables |  |
| N[C@@H]1[C@H]2CN(c3nc4c(cc3F)c(=O)c(C(=O)O)cn4-c3ccc(F)cc3F)C[C@@H]12 [trovafloxacin] | only sub-lethal injury induced by both telithromycin and trovafloxacin that was statistically significant was MtMP depletion; also recorded: induced only one type of sub-lethal injury, mitochondrial membrane potential depletion | evident, in decreasing magnitude, for LPS and IL-1α but not other treatment variables |  |
